According to patent publication US10532084B2, “Chondrocyte extracellular matrix-derived peptide” (EYEBIO KOREA, priority 2016, dated 2020):
Entries after “also recorded” stand apart in the source; their conditions may differ.

Experiments:
[1] = tested on: human vascular endothelial cells (HUVEC); experiment: Tubing assay (VEGF-induced tube formation); format: cell-based; settings: 4 hours
Description: The antiangiogenic effect of hydroxy proline-GQDGLAGPK was confirmed by tubing assay using human vascular endothelial cells (HUVEC).
HUVEC cells were stained with calcein-AM and then dispensed on a Matrigel-coated 48-well plate, treated with collagen, CPI and CPII at concentrations together with 50 ng/ml of recombinant human VEGF, and after 4 hours of incubation at 37° C., tube formation was observed by fluorescence microscopy (Leica) and tube length was analyzed by Image lab software (Bio-Rad Laboratories).
Tubing assay using human vascular endothelial cells (HUVEC) was performed to confirm the anti-angiogenic effect of hydroxyl proline-GQDGLAGPK.

[2] = Tear amount by phenol red-impregnated cotton threads, dry eye model; format: in vivo, NOD.B10.H2b mice
Description: Tear production was measured by a method reported using phenol red-impregnated cotton threads (Zone-Quick, Oasis, Glendora, Calif.) (Villareal A L, Farley W, Pflugfelder S C. Effect of topical ophthalmic epinastine and olopatadine on tear volume in mice. Eye Contact Lens. 2006; 32 (6): 272-276.). […] The measured lachrymal fluid in the millimeter was compared with a standard curve expressed as a cotton thread which was soaked with the expected tear amount of mouse of basic solution ([…] of 0.9% salt and 5 mL of 5 N NaOH) for 20 seconds.
The degree of tear generation was measured by phenol red-impregnated cotton threads.

[3] = tested on: rabbit cornea burned with alkali; settings: rabbit alkaline burn
Description: The rabbits were randomly divided into an alkaline burn group (n=5) and a peptide treated group (n=5). In the alkaline burn group, normal saline was administered 4 times daily and in the peptide-treated group, Hyp-[…] peptide of 10 mg/mL was administered 4 times daily, and the left eye was used as a control group.

[4] = tested on: choroidal neovascularization (CNV); experiment: Laser-induced choroidal neovascularization (CNV), lesion size by retina-choroid flat-mount; format: in vivo, C57BL/6 mice; settings: mouse, laser irradiation
Description: C57BL/6 mice were purchased from Orient Bio and the animal experiments was carried out in accordance with the guidelines approved by the University of Inje (No, 2013-053) and ARVO regarding animal use for eye and vision studies. 6-week-old C57BL/6 mice were treated with diode green laser (532 nm, 150 mW, 0.1 sec, […], photocoagulator) to damage the retinal optic nerve area. […] The above experiment for each experiment group was performed using both eyes of five mice each. […]
The mouse was anesthetized and injected with 25 mg/ml of FITC-dextran in […] of retro-orbital. After 30 minutes, the mouse was euthanized and the eyeball was extracted and fixed with 10% formalin and then, the cornea and lens were removed and flat mounted on the cover glass. The neovasculature stained with FITC-dextran was observed by fluorescence microscopy (Leica) and the lesion size was measured by Image J program. […]

corneal surface = experiment: Corneal surface irregularity (smoothness) score, dry eye model; format: in vivo, NOD.B10.H2b mice
Description: (§1) NOD.B10.H2^b mice were purchased from Jackson Laboratory (Bar Harbor, Me., USA). Animal experiments were carried out in accordance with the guidelines approved by the University of Inje (No.; 2014-029) and ARVO regarding animal use for eye and vision research. NOD.B10.H2^b mice at 12-16 weeks old were exposed to 40-50% ambient humidity and ventilation using a fan for 18 hours a day as dry stress and subcutaneously injected with 0.5 mg/0.2 mL muscarinic receptor blocker. In addition, scopolamine hydrobromide (Sigma-Aldrich, St. Louis, Mo.) was injected alternately to the […] hips four times a day for 10 days at 9 am, […].
(§2) After 10 days of ocular dry stress, the scopolamine injection was stopped, and switched to a normal humidity and temperature environment and the dry stress was removed, 10 mg/ml Hyp-[…] and collagen were dissolved in normal saline to administer 5 μL each 5 times a day for 10 days, and normal saline and 0.1% HA were administered to the eyeball 5 times a day for 10 days. Three mice were used in each of the six experimental groups using both eyes of the mice and all experiments were repeated.
As for the curvature of the corneal surface, a reflected image of the white ring was obtained from an optical fiber ring illumination of a stereoscopic microscope (SZX7; Olympus) after anesthetizing the animal. Corneal smoothness was assessed by grading the irregularity of corneal epithelial cells reflected in the white ring of the digital image. Corneal irregularity severity score was calculated by dividing the reflection ring into quadrants and grading into 5 grades according to degree of irregularity. No irregularity is grade 0, irregularity of ¼ (quarter) is grade 1; irregularity of 2/4 (two-quarters) is grade 2; irregularity of ¾ (three-quarters) is grade 3; entire irregularity is grade 4; and […] and thus all the rings were confirmed.
The degree of corneal curvature in each experiment group was quantified to confirm the bendability of the corneal surface.

[5] = tested on: conjunctival goblet cells; experiment: Distribution of conjunctival goblet cells (PAS staining), dry eye model; format: in vivo, NOD.B10.H2b mice
Description: as §1, §2
The distribution of conjunctival goblet cells according to eye drop in dry eye mice was observed.

hydroxy proline-GQDGLAGPK [Hyp-GQDGLAGPK]
concentration dependence of tube formation inhibition ([1]; 50 ng/ml VEGF): concentration-dependent manner | tube formation compared with the VEGF-untreated group ([1]; 50 ng/ml VEGF): decreased to almost same extent of angiogenesis of the VEGF-untreated group | inhibition of tube formation (angiogenesis) ([1]; 50 ng/ml recombinant human VEGF, listed as CPII): significant inhibition of angiogenesis; also recorded: best anti-angiogenic efficacy; also recorded: best anti-angiogenic ability | tear amount increase vs DS 10D group ([2]; 10 days after treatment): 7.9 times | tear amount relative to CsA treatment group ([2]; 10 days after treatment): 1.7 times | tear amount relative to DQS treatment group ([2]; 10 days after treatment): 1.4 times | tear amount relative to HA treatment group ([2]; 10 days after treatment): 1.6 times | tear amount relative to collagen positive control group ([2]; 10 days after treatment): about 1.7 times | tear amount relative to normal saline negative control group ([2]; 10 days after treatment): about 2.8 times | tear amount ([2]; 10 days of treatment after removal of dry stress, normal 0.22±0.01, DS 10D 0.03±0.01): 0.23 ± 0.02 µL | corneal neovascularization in H&E stained tissue ([3]; 10 days treatment): neovascularization was significantly improved | histological changes of the cornea (epithelial proliferation, inflammatory cell invasion, edema, neovascularization) ([3]; 10 days treatment, H&E): showed an advanced improvement effect | corneal thickness ([3]; after 10 days of peptide treatment, normal 526.6, alkaline burn 960.6): 550.0 μm | CNV lesions ([4]; 2 μg intraocular injection for 5 days, listed as CPII): reduced; also recorded: decreased | CNV lesion size vs control group ([4]; 5 μg intraocularly for 5 consecutive days, 14 days after laser, FITC-dextran flat-mount): significantly decreased | decrease of corneal surface curvature score vs CsA group (corneal surface; day 10): 40% | decrease of corneal surface curvature score vs DQS group (corneal surface; day 10): 33.3% | decrease of corneal surface curvature score vs HA group (corneal surface; day 10): 33.3% | decrease of corneal surface curvature score vs collagen group (corneal surface; day 10): 45.5% | decrease of corneal surface curvature score vs normal saline group (corneal surface; day 10): 40% | decrease of corneal surface curvature score vs dry stress (DS 10D) (corneal surface; day 10 after removal of dry stress): 53.8% | degree of curvature (irregularity score) of the corneal surface (corneal surface; day 10 after removal of dry stress, grades 0-5, normal 0.33±0.58, DS 10D 4.33±0.58): 2.0±0 points | goblet cell recovery vs dry stress (DS 10D) ([5]; 10 days of treatment): 2.3 times | goblet cells relative to CsA group ([5]; 10 days of treatment): 1.2 times | goblet cells relative to DQS group ([5]; 10 days of treatment): 1.5 times | goblet cells relative to HA group ([5]; 10 days of treatment): 1.6 times | goblet cells relative to collagen group ([5]; 10 days of treatment): 1.3 times | goblet cells relative to normal saline group ([5]; 10 days of treatment): 2.6 times | distribution of goblet cells in the conjunctiva (in words) ([5]; 10 days of treatment after removal of dry stress): significantly increased | conjunctival goblet cells ([5]; 10 days of treatment after removal of dry stress, normal 14.38±0.44, DS 10D 6.02±0.29): 13.9±0.83 /0.1 mm^2
